# Source: paper PMC7874386, “Protein-observed 19F NMR of LecA from Pseudomonas aeruginosa” (Glycobiology, 2020)
# Where two headings read alike, the source gives them in different places.
# Assays:
# 5FW LecA [1] = molecular target: T1, 5FW LecA (Pseudomonas aeruginosa, UniProt Q05097); test: PrOF NMR titration of ligands to 5FW LecA (W42 peak intensity); format: binding
# T1 construct: made in house; host or cells: Escherichia coli BL21 (DE3), plasmid pET25pa1l, grown with 5-fluoroindole
# Experimental: All experiments were conducted on Bruker Ascend™700 (AvanceIII HD) spectrometer equipped with a 5 mm TCI700 CryoProbe™ in 3 mm tubes (Norell S-3-800-7) with following parameters: time domain of 1972, relaxation delay 1 s, acquisition time of 0.15 s, spectral width of 10 p.p.m. and 1024 scans resulting in measurement time of 20 minutes.
# The decreasing intensity of the unbound W42 in 5FW LecA was followed to determine Kd values of ligands. Here, we used these values to normalize the changes in W42 peak intensities (Inormalized) following the equation (1) resulting in values plotted on Y-axis.(1) where I0 was unbound W42 in the reference spectrum of protein only, Imeasured was unbound W42 peak of protein with a ligand. The Kd values were calculated according to the one-site-binding model in GraphPad Prism 8 (GraphPad Software Inc., San Diego, CA) from three independent titrations.
# LecA [2] = molecular target: T2, LecA (Pseudomonas aeruginosa, UniProt Q05097); test: Isothermal titration calorimetry of Ca2+ to apo LecA; format: binding; conditions: unlabeled apo LecA, TBS pH 7.4, 25°C; read-out: Kd (ITC)
# T2 construct: made in house; host or cells: Escherichia coli BL21 (DE3) (inferred from the yield comparison; no protocol of its own is printed for the unlabelled protein)
# T2 sequence (Q05097 whole entry): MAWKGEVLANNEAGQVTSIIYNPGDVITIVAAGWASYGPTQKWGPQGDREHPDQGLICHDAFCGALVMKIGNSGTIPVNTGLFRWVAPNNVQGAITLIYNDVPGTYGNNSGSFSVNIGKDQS
# Experimental: ITC was performed on a Microcal ITC200 (General Electric) at 25°C. Calcium ions were removed by extensive dialysis against 1 mM EDTA pH 7.4 (×4) followed by 150 mM NaCl (×4) and distilled water. The protein solution was lyophilized and the solid protein stored at −20°C. A solution of calcium chloride in TBS (20 mM Tris, 137 mM NaCl, 2.6 mM KCl at pH 7.4) was titrated into a calcium-free LecA solution in the same buffer. The data were analyzed according to the one-site-binding model using Microcal Origin software. Four independent titrations were performed using CaCl2 and LecA between 2 and 3 mM and 170 and 200 μM, respectively.
# LecA [3] = molecular target: T2, LecA; conditions: ref Cioci et al. 2003; cited from earlier work
# 5FW LecA [4] = molecular target: T1, 5FW LecA; test: Competitive binding fluorescence polarization assay with 5FW LecA
# Experimental: (§1) The competitive binding assay was performed as reported previously ([Joachim et al. 2016]). In total, 10 μL of LecA (40 μM) and meta-linked fluorescein-conjugate of phenyl-galactopyranoside (20 nM) in TBS pH 7.4 supplemented with 1 mM CaCl2 (TBS/Ca^2+) and 10 μL of compound-dilution series (8 mM to 62 μM, 8% DMSO) in TBS/Ca^2+ buffer were mixed in a 384-well plate (Greiner Bio-One, Germany) in three technical replicates. The sealed plate was centrifuged at 300 g for 1 min and incubated at room temperature with shaking. […] Polarization was calculated and the data were analyzed according to the four-parameter variable slope model (MARS Data Analysis Software, BMG Labtech GmbH, Germany), the top and bottom plateaus were determined from the control Me-α-D-Gal and data were reanalyzed with these values fixed.
# LecA [5] = molecular target: T2, LecA; test: Competitive binding fluorescence polarization assay with LecA
# Experimental: as §1
# LecA [6] = molecular target: T2, LecA; conditions: cited from earlier work; for affinity improvement compared to galactose: reported Kd values, ref Kadam, et al. 2011, Rodrigue, et al. 2013
# T1 sequence (Q05097 2-122): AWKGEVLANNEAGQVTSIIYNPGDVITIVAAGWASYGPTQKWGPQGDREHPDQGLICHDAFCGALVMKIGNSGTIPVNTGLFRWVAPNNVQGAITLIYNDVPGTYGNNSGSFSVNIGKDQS
compound,measurement,setting,value
"[Ca+2] [Ca^2+, calcium (II) ion]",Kd,"5FW LecA [1]; 100 μM apo 5FW LecA, MES pH 6, 310 K, one-site-binding model, three independent titrations, listed as Ca2+, read-out: Kd (PrOF NMR, Ca2+ titration)",47 ± 8 µM
same,Kd,"5FW LecA [1]; 100 μM apo 5FW LecA, MES pH 6, 310 K, one-site-binding model, three independent titrations, read-out: Kd (PrOF NMR, Ca2+ titration)",478 µM
same,Kd,LecA [2],60 ± 20 µM
"O=C[C@H](O)[C@@H](O)[C@@H](O)[C@H](O)CO [D-Gal, D-galactose]",Kd,LecA [3],29 µM
same,IC50,5FW LecA [4],317 µM
same,Kd,5FW LecA [1],360 µM
same,IC50,LecA [5],330 ± 40 µM
"CC(=O)N[C@H]1C(O)O[C@H](CO)[C@H](O)[C@@H]1O (stereo partly drawn) [D-GalNAc, N-acetyl D-galactosamine]",IC50,5FW LecA [4],1990 µM
same,IC50 (FP-based assay) higher compared with Kd from PrOF NMR,5FW LecA [4]; 5FW LecA,3 fold
same,Kd,5FW LecA [1],780 ± 97 µM
same,IC50,LecA [5],1230 ± 200 µM
CC(C)C[C@H](NC(=O)[C@@H]1CCCN1C(=O)[C@H](CCCCN)NC(=O)c1ccc(O[C@@H]2O[C@H](CO)[C@H](O)[C@H](O)[C@H]2O)cc1)C(N)=O [GalAG0],Kd,"LecA [6]; ref Kadam et al. 2011, Kadam et al. 2013, Rodrigue et al. 2013",4.2 µM
"OC[C@H]1O[C@@H](Oc2ccccc2)[C@H](O)[C@@H](O)[C@H]1O [Ph-β-D-Gal, phenyl-β-D-galactopyranoside]",Kd,"5FW LecA [1]; 100 μM holo 5FW LecA, TBS pH 7.8, 310 K, one-site-binding model, three independent titrations, read-out: Kd (PrOF NMR)",166 ± 42 µM
OC[C@H]1O[C@@H](Sc2ccc3ccccc3c2)[C@H](O)[C@@H](O)[C@H]1O [naphthyl β-thio-D-galactoside],Kd,LecA [6]; ref Rodrigue et al. 2013,6.3 µM
same,affinity improvement compared to galactose,LecA [6],6 to 7 fold
"O=[N+]([O-])c1ccc(O[C@@H]2O[C@H](CO)[C@H](O)[C@H](O)[C@H]2O)cc1 [pNPGal, p-nitrophenyl β-D-galactoside]",affinity improvement compared to galactose,LecA [6],6 to 7 fold
same,Kd,5FW LecA [1],54 ± 6 µM
same,improved binding affinity compared to D-Gal,"5FW LecA [1]; Kd in PrOF NMR, pNPGal vs D-Gal",6 fold
